Several values for one entry are separate records, joined by “and”; a condition that tells them apart may be missing. Identical values can stand only once. Like-named read-outs stand apart in the source and are kept apart here.
What was measured:
FLT3 kinase = target: T1, FLT3 kinase (Homo sapiens, UniProt P36888); experiment: Biochemical enzyme inhibition assay (microfluidics, Caliper EZ Reader II), FLT3; details: for IC50: in vitro kinase assay, 60 min pre-incubation, ATP 190 µM, three independent experiments; for LE: ligand efficiency for FLT3 inhibition
T1 construct: purchased Invitrogen
T1 sequence (P36888 27-993): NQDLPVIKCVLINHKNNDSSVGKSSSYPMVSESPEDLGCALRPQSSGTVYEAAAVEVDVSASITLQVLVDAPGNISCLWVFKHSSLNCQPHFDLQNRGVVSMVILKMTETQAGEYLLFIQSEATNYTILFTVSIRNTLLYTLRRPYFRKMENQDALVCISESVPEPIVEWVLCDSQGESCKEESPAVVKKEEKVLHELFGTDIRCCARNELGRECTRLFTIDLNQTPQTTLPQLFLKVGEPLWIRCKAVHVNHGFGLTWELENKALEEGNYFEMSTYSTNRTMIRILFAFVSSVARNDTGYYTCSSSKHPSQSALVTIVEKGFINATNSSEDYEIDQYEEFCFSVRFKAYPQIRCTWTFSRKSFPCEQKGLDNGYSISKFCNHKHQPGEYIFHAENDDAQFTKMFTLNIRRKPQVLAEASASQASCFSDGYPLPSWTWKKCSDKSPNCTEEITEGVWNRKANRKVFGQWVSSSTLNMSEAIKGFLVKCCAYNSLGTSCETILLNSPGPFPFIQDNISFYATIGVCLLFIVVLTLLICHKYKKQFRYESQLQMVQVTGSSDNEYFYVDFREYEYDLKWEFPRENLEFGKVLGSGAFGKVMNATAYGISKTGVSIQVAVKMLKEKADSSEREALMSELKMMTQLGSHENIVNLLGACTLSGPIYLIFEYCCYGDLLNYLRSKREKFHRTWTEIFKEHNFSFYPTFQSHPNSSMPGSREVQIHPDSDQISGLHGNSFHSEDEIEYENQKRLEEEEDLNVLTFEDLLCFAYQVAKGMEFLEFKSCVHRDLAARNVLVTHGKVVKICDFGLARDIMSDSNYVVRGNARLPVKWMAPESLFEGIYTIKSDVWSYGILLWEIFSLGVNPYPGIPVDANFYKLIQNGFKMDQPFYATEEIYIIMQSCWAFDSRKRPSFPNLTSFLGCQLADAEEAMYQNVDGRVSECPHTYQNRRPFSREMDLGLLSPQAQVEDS
Procedure: Kinase activity was measured in a microfluidics assay that monitors the separation of a phosphorylated product from substrate[31],[32]. […] After, 1 μL was transferred into a 384-well polypropylene assay plate (Greiner, Frickenhausen, Germany). The FLT3 enzyme (Invitrogen™, Grand Island, USA) was diluted in kinase buffer to a concentration of 2 nM and 5 µL of the enzyme mixture was transferred to the assay plate. The inhibitors/FLT3 enzyme were incubated for 60 minutes with minor shaking. […] For positive control, no inhibitor was added. For negative control, no enzyme was added. For running control, quizartinib was utilized. The plate was run until 10–20% conversion based on the positive control wells. The following separation conditions were utilized: upstream voltage −500V; downstream voltage, −1900V; chip pressure −0.8. Percent inhibition was measured for each well comparing starting peptide to phosphorylated product peaks relative to the baseline. Dose response curves, spanning the IC50 dose, were generated in GraphPad Prisim 6 and fit to an exponential one-phase decay line and IC50 values were obtained from the half-life value of the curve. IC50 values were generated in duplicate and error was calculated from the standard deviation between values.
S10. Biochemical Inhibition Assay:1,2 Kinase activity was measured in a microfluidics assay that monitors the separation of a phosphorylated product from substrate. The assay was run using a 12-sipper chip on a Caliper EZ Reader II (PerkinElmer®, Walthman, USA) with separation […]
Walthman, USA]). In 96-well polypropylene plates (Greiner, Frickenhausen, Germany) […]
After, 1 μL was transferred into a 384-well polypropylene assay plate (Greiner, Frickenhausen, Germany). The FLT3 enzyme (Invitrogen™, Grand Island, USA) was diluted in kinase buffer to a concentration of 2 nM and 5 µL of the enzyme mixture was transferred to the assay plate. The inhibitors/FLT3 enzyme were incubated for 60 minutes with minor shaking. A substrate mix was prepared containing ATP (Ambresco®, Solon, USA) and […]
USA) dissolved in kinase buffer, and 5 µL of the substrate mix was added to the assay plate.
For positive control, no inhibitor was added. For negative control, no enzyme was added. For running control, quizartinib was utilized. The plate was run until 10-20% conversion based on the positive control wells. The following separation conditions were utilized: upstream voltage -500V; downstream voltage, -1900V; chip pressure - 0.8. Percent inhibition was measured for each well comparing starting peptide to phosphorylated product peaks relative to the baseline. Dose response curves, spanning the IC50 dose, were generated in GraphPad Prisim 6 and fit to an exponential one-phase decay line and IC50 values were obtained from the half-life value of the curve. IC50 values were generated in duplicate and error was calculated from the standard deviation between values. […]

Ba/F3 FLT3-ITD = experiment: Cell proliferation (CellTiter-Glo, 48 h), Ba/F3 FLT3-ITD; type: cell-based
From the text: (§1) Stable BaF3 populations expressing activated FLT3 were generated by retroviral spinfection with the appropriate mutated plasmid followed by selection and growth factor withdrawal as previously described. The BaF3 cell line was originally obtained from the laboratory of Charles Sawyers and has not been authenticated. MV411 and Molm14 cells were obtained from the laboratory of Scott Kogan and authenticated by Promega STR analysis in June 2013. All cell lines were mycoplasma-free. Cells were incubated with compounds for 48 hours and proliferation was assessed using CellTiter-Glo (Promega; Madison, WI) according to the manufacturer’s recommendation on a SpectraMax M3 microplate reader using SpectraMax Software (Molecular Devices; Sunnyvale, CA). All cell viability data shown is reflective of experiments performed a minimum of three times. […]
(§2) S13. Cell Cultures: Stable BaF3 populations expressing activated FLT3 were generated by retroviral spinfection with the appropriate mutated plasmid followed by selection and growth factor withdrawal as previously described .4 The BaF3 cell line was originally obtained from the laboratory of Charles Sawyers and has not been authenticated. MV411 and Molm14 cells were obtained from the laboratory of Scott Kogan and authenticated by Promega STR analysis in June
(§3) 2013. All cell lines were mycoplasma -free. Cells were incubated with compounds for 48 hours and proliferation was assessed using CellTiter -Glo (Promega; Madison, WI) according to the manufacturer’s recommendation on a SpectraMax M3 microplate reader using SpectraMax Software (Molecular Devices; Sunnyvale, CA). All cell viability data shown is reflective of experiments performed a minimum of three times.

Molm14 par = experiment: Cell proliferation (CellTiter-Glo, 48 h), Molm14 par; type: cell-based; details: Homo sapiens, MOLM-14
From the text: as §1, §2, §3

Molm14^D835Y = experiment: Cell proliferation (CellTiter-Glo, 48 h), Molm14 D835Y; type: cell-based; details: Homo sapiens, MOLM-14; Molm14^D835Y, 48 hours
From the text: as §1, §2, §3

Molm14^F691L = experiment: Cell proliferation (CellTiter-Glo, 48 h), Molm14 F691L; type: cell-based; details: Homo sapiens, MOLM-14; Molm14^F691L, 48 hours
From the text: as §1, §2, §3

MV4–11 AML cells = experiment: Cell proliferation (CellTiter-Glo, 48 h), MV4-11; type: cell-based; details: Homo sapiens; MV4–11, 48 hours
From the text: as §1, §2, §3

| Compound | IC50 (FLT3 kinase; read-out: FLT3 IC50 (nM) ± SD) | LE (FLT3 kinase) | GI50 (Ba/F3 FLT3-ITD) [nM] | GI50 (Molm14 par) [nM] | GI50 (Molm14^D835Y) [nM] | GI50 (Molm14^F691L) [nM] | GI50 (MV4–11 AML cells) [nM] | melting point [°C] | fold less active than 13a on FLT3 (FLT3 kinase; enzymatic FLT3 IC50 compared with 13a) | IC50 (FLT3 kinase; FLT3 IC50 (nM) ± SD) [nM] |
| --- | --- | --- | --- | --- | --- | --- | --- | --- | --- | --- |
| CNc1cc(Nc2ccc(CC(=O)Nc3ccc(S(C)(=O)=O)cc3)cc2)ncn1 [13v, 2-(4-(6-(methylamino)pyrimidin-4-ylamino)phenyl)-N-(4-(methylsulfonyl)phenyl) acetamide] | 2120 ± 401 nM | 0.27 | > 10000 | > 10000 | > 10000 | > 10000 | > 10000 | 220 to 222 | – | – |
| CNc1cc(Nc2ccc(CC(=O)Nc3cc(C(C)(C)C)nn3C)cc2)ncn1 [13b, 2-(4-(6-(Methylamino)pyrimidin-4-ylamino)phenyl)-N-(3-tert-butyl-1-methyl-1H-pyrazol-5-yl)acetamide] | 37.5 ± 13 nM | 0.35 | 158 | 187 | 2230 | 1350 | 80.6 | 194 to 196 | – | – |
| Cn1nc(C(C)(C)C)cc1NC(=O)Nc1ccc(Nc2cc(Nc3ccc(S(C)(=O)=O)cc3)ncn2)cc1 [24a, 1-(4-(6-(4-(Methylsulfonyl)phenylamino)pyrimidin-4-ylamino)phenyl)-3-(3-tert-butyl-1-methyl-1H-pyrazol-5-yl)urea] | 41 ± 6.8 nM | 0.27 | – | – | – | – | – | 238 to 240 | ~ 3 fold | – |
| CC(C)(C)c1cc(NC(=O)Cc2ccc(Nc3cc(NCCCN4CCCC4)ncn3)cc2)no1 [13n, 2-(4-(6-(3-(Pyrrolidin-1-yl)propylamino)pyrimidin-4-ylamino)phenyl)-N-(5-tert-butylisoxazol-3-yl)acetamide] | 1030 ± 121 nM | 0.23 | – | – | – | – | – | 154 to 156 | – | – |
| CNc1cc(Nc2ccc(CC(=O)Nc3cccc(C(F)(F)F)c3)cc2)ncn1 [13r, 2-(4-(6-(Methylamino)pyrimidin-4-ylamino)phenyl)-N-(3-(trifluoromethyl)phenyl) acetamide] | 411 ± 236 nM | 0.30 | 266 | 187 | 2230 | 1350 | 80.6 | 216 to 218 | – | – |
| CCCCNc1cc(Oc2ccc(CC(=O)Nc3nc(C(C)(C)C)cs3)cc2)ncn1 [13aj, 2-(4-(6-(Butylamino)pyrimidin-4-yloxy)phenyl)-N-(4-tert-butylthiazol-2-yl)acetamide] | 7580 ± 132 nM | 0.23 | – | – | – | – | – | 102 to 104 | – | – |
| O=C(Cc1ccc(Nc2cc(NCCCN3CCCC3)ncn2)cc1)Nc1ccc(OC(F)(F)F)cc1 [13t, 2-(4-(6-(3-(Pyrrolidin-1-yl)propylamino)pyrimidin-4-ylamino)phenyl)-N-(4-(trifluoromethoxy)phenyl)acetamide] | 909 ± 95.9 nM | 0.22 | – | – | – | – | – | 212 to 214 | – | – |
| CNc1cc(Oc2ccc(CC(=O)Nc3ccc(F)cc3)cc2)ncn1 [13ad, 2-(4-(6-(Methylamino)pyrimidin-4-yloxy)phenyl)-N-(4-fluorophenyl)acetamide] | 12800 ± 834 nM | 0.26 | – | – | – | – | – | 124 to 126 | – | – |
| CNc1cc(Nc2ccc(NC(=O)Nc3cc(C(C)(C)C)nn3C)cc2)ncn1 [24b, 1-(4-(6-(Methylamino)pyrimidin-4-ylamino)phenyl)-3-(3-tert-butyl-1-methyl-1H-pyrazol-5-yl)urea] | 38.2 ± 1.5 nM | 0.37 | – | – | – | – | – | 242 to 244 | – | – |
| Cn1nc(C(C)(C)C)cc1NC(=O)Cc1ccc(Oc2cc(Nc3cccc(C(F)(F)F)c3)ncn2)cc1 [13f, 2-(4-(6-(3-(Trifluoromethyl)phenylamino)pyrimidin-4-yloxy)phenyl)-N-(3-tert-butyl-1-methyl-1H-pyrazol-5-yl)acetamide] | 961 ± 33.7 nM | 0.22 | – | – | – | – | – | 140 to 142 | – | – |
| CC(C)(C)c1cc(NC(=O)Cc2ccc(Nc3cc(Oc4ccc(Br)cc4)ncn3)cc2)no1 [13o, 2-(4-(6-(4-Bromophenoxy)pyrimidin-4-ylamino)phenyl)-N-(5-tert-butylisoxazol-3-yl)acetamide] | – | 0.19 | – | – | – | – | – | 188 to 190 | – | 14800 ± 248 |
| CNc1cc(Oc2ccc(CC(=O)Nc3ccc(C(C)(C)C)cc3)cc2)ncn1 [13x, 2-(4-(6-(Methylamino)pyrimidin-4-yloxy)phenyl)-N-(4-tert-butylphenyl)acetamide] | 5090 ± 75.5 nM | 0.25 | – | – | – | – | – | 208 to 210 | – | – |
| CS(=O)(=O)c1ccc(Nc2cc(Oc3ccc(CC(=O)Nc4cccc(F)c4)cc3)ncn2)cc1 [13aa, 2-(4-(6-(4-(Methylsulfonyl)phenylamino)pyrimidin-4-yloxy)phenyl)-N-(3-fluorophenyl)acetamide] | 7878 ± 29 nM | 0.20 | – | – | – | – | – | 228 to 230 | – | – |
| CS(=O)(=O)c1ccc(Nc2cc(Nc3ccc(CC(=O)Nc4cccc(C(F)(F)F)c4)cc3)ncn2)cc1 [13s, 2-(4-(6-(4-(Methylsulfonyl)phenylamino)pyrimidin-4-ylamino)phenyl)-N-(3-(trifluoromethyl)phenyl)acetamide] | 860 ± 30 nM | 0.22 | – | – | – | – | – | 225 to 227 | – | – |
| CC(C)(C)c1cc(NC(=O)Cc2ccc(Oc3cc(Nc4cccc(C(F)(F)F)c4)ncn3)cc2)no1 [13l, 2-(4-(6-(3-(Trifluoromethyl)phenylamino)pyrimidin-4-yloxy)phenyl)-N-(5-tert-butylisoxazol-3-yl)acetamide] | 567 nM and 568 nM | 0.23 | – | – | – | – | – | 120 to 122 | – | – |

Reference: publication PMC5829162, “Rational Design, Synthesis and Biological Evaluation of Pyrimidine-4,6-diamine derivatives as Type-II inhibitors of FLT3 Selective Against c-KIT” (Scientific Reports, 2018)
